The text below walks through data of publication PMC8764033, “Single-molecule analysis of specificity and multivalency in binding of short linear substrate motifs to the APC/C” (Nature Communications, 2022).

Values joined by “and” are separate entries in the source; they are usually repeats but may differ in a detail not shown here. Equal entries are not always repeated. Where two headings read alike, the source gives them in different places. Where a SMILES comes first, the peptide text is derived from it.

Format in all cases: binding
One test deals with T1, APC/C^Cdc20 (Saccharomyces cerevisiae, UniProt P26309+P53068).
T1 construct: APC/C was purified from yeast cells; made in house; host or cells: APC/C from S. cerevisiae W303 strain NHY13 (Cdc16-TAP, Apc1-GFP, cdh1 deleted); Cdc20 from Sf9 (baculovirus)
Briefly: SMOR assay, yeast APC/C^Cdc20. To be noted: for mean dwell time: representative of two independent experiments, ± SE, ligand ≤1 nM, buffer C + BSA. On the procedure:
(§1) Yeast strains were derivatives of W303 and are listed in Supplementary Table 2. For APC/C purification, we used a strain carrying Cdc16-TAP and lacking Cdh1 (DOM1126); in most experiments, the strain also carried Apc1-GFP (NHY13). Yeast were grown in YPD media to OD600 = 0.8, collected and flash-frozen. Cells were lysed by bead beating in lysis buffer A (50 mM HEPES pH 7.5, 150 mM KCl, 10% glycerol, 0.2% Triton X-100, 63 µM B-glycerophosphate, 48 µM sodium fluoride, 1 µg ml^−1 pepstatin A, 1 µg ml^−1 leupeptin, 1 µg ml^−1 aprotinin, 1 mM PMSF, 1 mM DTT, 0.5 mM EDTA) and APC/C was purified using magnetic IgG beads. The beads were washed using wash buffer A (20 mM HEPES pH 7.5, 150 mM KCl, 10% Glycerol, 0.05% Triton X-100). After incubation with purified Cdh1 or Cdc20, the APC/C was cleaved off the beads with TEV protease in wash buffer A with 0.05% Tween-20 (for single-molecule studies) or 0.05% Triton X-100 (for ensemble assays such as ubiquitylation) and used immediately.
(§2) For all SMOR experiments, 24 × 50 mm high precision glass coverslips (Bioscience Tools) and drilled microscope slides were passivated with a combination of PEG and PEG-biotin (coverslips) or PEG only (slides) following a previously published protocol for SiMPull[31]. Reaction chambers (~20 µl) were created using double-sided tape and epoxy. Protein was immobilized on the surface with 0.2 mg ml^−1 NeutrAvidin in buffer C (20 mM HEPES pH 7.5, 150 mM KCl, 10% glycerol, 0.05% Tween-20, 1 mM DTT). Excess NeutrAvidin was washed away and incubated with either biotin-conjugated mouse monoclonal anti-Strep-Tag II antibody (LSBio, Cat. No. LS-C203632-100) or biotin-conjugated rabbit polyclonal anti-GFP antibody (Rockland, Cat. No. 600-406-215) diluted in buffer C + BSA (0.1 mg ml^−1; Molecular Biology Grade Bovine Serum Albumin). Activator WD40 and activated APC/C (typically 50 µl containing about 65 ng APC/C, of which only a small fraction is immobilized on the glass) were immobilized using anti-Strep-Tag II, while APC/C alone was immobilized with anti-GFP. SMOR results were similar when performed in the buffer (wash buffer B) used in polarization anisotropy.
(§3) To capture dynamic protein–protein interactions, dye-labeled substrate diluted in buffer C + BSA was added to the chamber containing immobilized proteins. Interactions were imaged by TIRF microscopy as described below. For optimal signal-to-noise ratio, peptide concentration was no greater than 1 nM. Protein substrates included Hsl1 aa 667–872 and a C-terminal HaloTag followed by a TAP tag, and were produced by translation in rabbit reticulocyte lysates using TnT Quick Coupled Transcription/Translation System (Promega) (see Supplementary Table 5 for plasmids). Protein was purified with magnetic IgG beads and labeled on the bead with JF549 or JF646 dye so that unbound dye could be washed away. Purified dye-labeled protein was then cleaved from the beads using TEV protease. Before adding substrate to the reaction chamber, oxygen scavenging reagents were added (10 nM protocatechuate-3,4-dioxygenase, 2.5 mM protocatechuic acid, and 1 mM Trolox)[41]. A detailed description of the SMOR analysis pipeline is found in Supplementary Note 1.
(§4) Microscopy was performed with a Nikon Eclipse TE2000-E with Perfect Focus with a 100 × 1.49na oil, Apo TIRF DIC N2, 0.13-0.2, WD0.12 objective. Movies were recorded using the Andor iXon DU-897E-CSO. For visualizing GFP-tagged protein, a 491 nm laser was used with an ET525/50 (Chroma) filter for emission. For visualizing JF549-labeled substrate, a 561 nm laser was used with an ET595/50 (Chroma) filter for emission. For visualizing all Cy5-labeled peptides and JF646-labeled substrates, a 640 nm laser was used with an ET685/70 filter (Chroma) for emission. Initially, for each substrate tested, we acquired movies at multiple intervals to deduce the optimal interval to decrease bleaching. µManager version 2.0 was used to control the microscope and record time-lapse movies.

In a further test the target is T2, APC/C^Cdh1 (Saccharomyces cerevisiae, UniProt P53068+P53197).
T2 construct: APC/C was purified from yeast cells; made in house; host or cells: APC/C from S. cerevisiae W303 strain NHY13 (Cdc16-TAP, Apc1-GFP, cdh1 deleted); Cdh1 from Sf9 (baculovirus)
To be noted: for mean dwell time: representative of two independent experiments, ± SE, ligand ≤1 nM, buffer C + BSA. On the procedure: as §1, §2, §3, §4

The target of a further test is T3, APC/C^apo (Saccharomyces cerevisiae, UniProt P38042+P53068).
T3 construct: APC/C was purified from yeast cells; made in house; host or cells: S. cerevisiae W303 strain NHY13 (Cdc16-TAP, Apc1-GFP, cdh1 deleted)
The experiment in a line: SMOR assay, yeast APC/C^apo (no activator). To be noted: Supplementary Table 1, single movie. On the procedure:
as §1, §2, §3, §4

[1] abbreviates: Supplementary Table 1, replicate 1 (movie listed first).
Where [2] appears, read: Supplementary Table 1, replicate 2 (movie listed second).
Where [3] appears, read: Supplementary Table 1, replicate 1.
Setting [4] is: Supplementary Table 1, replicate 2.

On to `CC(C)C[C@H](NC(=O)[C@H](C)NC(=O)[C@H](CCCNC(=N)N)NC(=O)[C@H](CCCNC(=N)N)NC(=O)[C@@H]1CCCN1C(=O)[C@H](CCCCN)NC(=O)[C@H](CO)NC(=O)[C@H](CC(=O)O)NC(=O)[C@@H](N)CCC(N)=O)C(=O)N[C@H](C(=O)N[C@@H](CC(=O)O)C(=O)N[C@H](C(=O)N1CCC[C@H]1C(=O)N[C@H](C(=O)N[C@@H](CC(N)=O)C(=O)N[C@@H](CC(N)=O)C(=O)N[C@@H](CC(N)=O)C(=O)N1CCC[C@H]1C(=O)N[C@@H](CC(C)C)C(=O)N[C@@H](CO)C(=O)N[C@@H](CCC(N)=O)C(=O)N[C@@H](CCCCN)C(=O)O)C(C)C)C(C)C)[C@@H](C)O` [Clb5 D box] (H-QDSKPRRALTDVPVNNNPLSQK-OH; N-terminus and C-terminus assumed), for which the “Dwell Time” value on APC/C^Cdc20 (setting [1]) is 0.179 ± 0.008 s; at APC/C^Cdc20 (setting [2]) it was 0.207 ± 0.008 s; at APC/C^Cdh1 (setting [1]) it was 0.146 ± 0.007 s; on APC/C^Cdh1 (setting [2]), 0.159 ± 0.004 s. Besides, the mean dwell time on APC/C^Cdc20 is 0.207 ± 0.008 s and 0.207 s; on APC/C^Cdh1 it was 0.159 ± 0.004 s and 0.159 s. In addition, at APC/C^apo, the “Dwell Time (in words)” value is “no binding”.

Turning to `CC[C@H](C)[C@H](NC(=O)[C@H](CC(=O)O)NC(=O)[C@H](CO)NC(=O)[C@H](C)NC(=O)[C@H](C)NC(=O)[C@H](C)NC(=O)[C@H](C)NC(=O)[C@H](CCCCN)NC(=O)[C@@H]1CCCN1C(=O)[C@H](CCCCN)NC(=O)[C@H](CCC(N)=O)NC(=O)[C@@H](N)CCC(=O)O)C(=O)N[C@H](C(=O)N[C@@H](C)C(=O)N[C@@H](CO)C(=O)N[C@@H](Cc1ccccc1)C(=O)N[C@@H](CC(N)=O)C(=O)N[C@@H](CCCCN)C(=O)N[C@@H](CCSC)C(=O)N[C@@H](CC(N)=O)C(=O)N[C@@H](CCCCN)C(=O)O)[C@@H](C)O` [Hsl1 D box mutant] (H-EQKPKAAAASDITASFNKMNK-OH; N-terminus and C-terminus assumed), the “binding (in words)” value at APC/C^Cdc20 and on APC/C^Cdh1 was “No binding” throughout. The “Dwell Time (in words)” value at APC/C^Cdc20 (setting [3]), at APC/C^Cdc20 (setting [4]), at APC/C^Cdh1 (setting [3]) and at APC/C^apo was “no binding” in each case.

For the compound `CC[C@H](C)[C@H](NC(=O)[C@H](Cc1ccccc1)NC(=O)[C@H](CO)NC(=O)[C@H](CCCCN)NC(=O)[C@H](CO)NC(=O)[C@H](CCCNC(=N)N)NC(=O)[C@H](CC(N)=O)NC(=O)[C@H](CC(N)=O)NC(=O)[C@H](CC(=O)O)NC(=O)[C@H](CCCCN)NC(=O)[C@H](C)NC(=O)[C@H](C)NC(=O)[C@H](CC(C)C)NC(=O)[C@@H]1CCCN1C(=O)[C@H](CC(C)C)NC(=O)[C@H](CCCNC(=N)N)NC(=O)CNC(=O)[C@H](CCC(N)=O)NC(=O)[C@H](CCC(N)=O)NC(=O)[C@H](CCC(N)=O)NC(=O)[C@H](C)N)C(=O)N[C@@H](CCCCN)C(=O)O` [ySecurin D box] (H-AQQQGRLPLAAKDNNRSKSFIK-OH; N-terminus and C-terminus assumed), the “Dwell Time” value at APC/C^Cdc20 (setting [1]) is 1.859 ± 0.041 s; on APC/C^Cdc20 (setting [2]), 1.870 ± 0.035 s; at APC/C^Cdh1 (setting [1]) it was 0.132 ± 0.002 s; at APC/C^Cdh1 (setting [2]) it was 0.121 ± 0.006 s. Moreover, the mean dwell time at APC/C^Cdc20 is 1.87 ± 0.04 s and 1.87 s; on APC/C^Cdh1 it was 0.132 ± 0.002 s and 0.132 s. Besides, the “fold higher affinity for APC/C^Cdc20” value on APC/C^Cdc20 (vs APC/C^Cdh1) came out at 15 fold. Besides, the “Dwell Time (in words)” value on APC/C^apo is recorded as “no binding”.

As to “LIYVDKENGEPGTR-K(Cy5) [hSecurin KEN, Cy5-labeled KEN box peptide of human securin/Pttg1]”, the “binding (in words)” value on APC/C^Cdc20 and at APC/C^Cdh1 was “No binding” throughout. For the same compound, the “Dwell Time (in words)” value at APC/C^Cdc20 (setting [3]), at APC/C^Cdc20 (setting [4]), on APC/C^Cdh1 (setting [3]), at APC/C^Cdh1 (setting [4]) and on APC/C^apo was “no binding” each time.

Turning to “LPKATRKALGTVNRATEKSVK-K(Cy5) [AurKB D box, Cy5-labeled D box peptide of Aurora B kinase]”, the “binding (in words)” value at APC/C^Cdc20 and at APC/C^Cdh1 was “No binding” each time. In addition, the “Dwell Time (in words)” value on APC/C^Cdc20 (setting [3]), at APC/C^Cdc20 (setting [4]), on APC/C^Cdh1 (setting [3]), on APC/C^Cdh1 (setting [4]) and at APC/C^apo was “no binding” each time.

In the case of “SKAAQFMLYEETAEERNI-K(Cy5) [Acm1 ABBA, Cy5-labeled Cdh1-specific ABBA motif from pseudosubstrate yeast protein Acm1]”, the “binding (in words)” value on APC/C^Cdc20 and on APC/C^Cdh1 was “No binding” throughout. Moreover, the “Dwell Time (in words)” value on APC/C^Cdc20 (setting [3]), at APC/C^Cdc20 (setting [4]), at APC/C^Cdh1 (setting [3]), on APC/C^Cdh1 (setting [4]) and at APC/C^apo was “no binding” each time.
